Values joined by “and” are separate entries in the source; they are usually repeats but may differ in a detail not shown here. Identical values can stand only once. “Also recorded” adds a separate entry of the source. Like-named read-outs stand apart in the source and are kept apart here.
Experiments:
[1] = molecular target: T1, SARS-CoV-2 M^pro (Severe acute respiratory syndrome coronavirus 2, UniProt P0DTD1); assay: biochemical; assay type: binding
[2] = molecular target: T1, SARS-CoV-2 M^pro; assay: biochemical; assay type: biochemical; conditions: for inhibitory efficacy on the enzymatic activity of M^pro (inhibition rate): 20 μM drug, 1.5 µM M^pro, 10 μM substrate, 3~6 h
[3] = test system: SARS-CoV-2; assay: Antiviral activity assay in infected Vero E6 cells, viral RNA copies by qRT-PCR; assay type: cell-based; conditions: Vero E6, MOI 0.01, 48 h after infection
[4] = test system: SARS-CoV-2; design: method as in earlier work; conditions: cellular experiment; cited from earlier work
[5] = SPR, steady-state affinity model, 25℃, read-out: KD (equilibrium dissociation constant)

**Q.** What does the source list for `Cc1onc(-c2ccccc2Cl)c1C(=O)N[C@@H]1C(=O)N2[C@@H]1SC(C)(C)[C@@H]2C(=O)O` [Cloxacillin]?
**A.** Kd [1, 5]: ≤ 55 µM and 54.6 µM; inhibitory efficacy on the enzymatic activity of M^pro (inhibition rate) [2]: moderate inhibition

**Q.** For `C[C@@H]1CCO[C@H]2Cn3cc(C(=O)NCc4ccc(F)cc4F)c(=O)c(O)c3C(=O)N12` [Dolutegravir], which Kd [1, 5] is on record?
**A.** The Kd was ≤ 55 µM and 18.1 µM.

**Q.** And the “inhibitory efficacy on the enzymatic activity of M^pro (inhibition rate)” value (“inhibitory efficacy” for short) [2]?
**A.** The value was “moderate inhibition”.

**Q.** Which Kd [1, 5] does the source give for `CC(C)(O)CNc1nc(Nc2ccnc(C(F)(F)F)c2)nc(-c2cccc(C(F)(F)F)n2)n1` [Enasidenib] here?
**A.** The Kd was ≤ 55 µM and 9.31 µM.

**Q.** Which results are given for `CN1CCN(c2ccc(C(=O)Nc3n[nH]c4ccc(Cc5cc(F)cc(F)c5)cc34)c(NC3CCOCC3)c2)CC1` [Entrectinib]?
**A.** Kd [1, 5]: ≤ 55 µM and 0.68 µM; IC50 ([2]; 200 nM M^pro, 5-fold gradient 0.032-20 µM, 3 h, read-out: IC50): 10.6 µM; inhibitory efficacy on the enzymatic activity of M^pro (inhibition rate) [2]: outstanding inhibitory efficacy; EC50 ([3]; Severe acute respiratory syndrome coronavirus 2, Vero C1008): 0.198 µM

**Q.** With `CC(C)C[C@H](NC(=O)OCc1ccccc1)C(=O)N[C@@H](CC1CCNC1=O)C(O)S(=O)(=O)O` (stereo partly drawn) [GC376] as the molecule, how does the EC50 [3] read?
**A.** The EC50 was 0.074 µM.

**Q.** What does the source list for `CC(C)(C)NC(=O)[C@@H]1C[C@@H]2CCCC[C@@H]2CN1C[C@@H](O)[C@H](Cc1ccccc1)NC(=O)[C@H](CC(N)=O)NC(=O)c1ccc2ccccc2n1` [Saquinavir]?
**A.** Kd [1]: 2.96 ± 2 µM; Kd ([1]; read-out: KD (equilibrium dissociation constant)): ≤ 55 µM

**Q.** For `CC(C)CN(C[C@@H](O)[C@H](Cc1ccccc1)NC(=O)O[C@H]1CO[C@H]2OCC[C@H]21)S(=O)(=O)c1ccc(N)cc1` [darunavir], which “inhibitory efficacy” value [2] is on record?
**A.** The value was “either no or only weak inhibitory effects”.

**Q.** For `Cc1cccc(C)c1OCC(=O)N[C@@H](Cc1ccccc1)[C@@H](O)C[C@H](Cc1ccccc1)NC(=O)[C@H](C(C)C)N1CCCNC1=O` [lopinavir], which “inhibitory efficacy” value [2] is on record?
**A.** Its value is “either no or only weak inhibitory effects”.

**Q.** With `Cc1c(O)cccc1C(=O)N[C@@H](CSc1ccccc1)[C@H](O)CN1C[C@H]2CCCC[C@H]2C[C@H]1C(=O)NC(C)(C)C` [nelfinavir] as the molecule, how does the Kd [1] read?
**A.** The Kd was 2.36 µM.

**Q.** What about the IC50 [2] of the same molecule?
**A.** Its IC50 is 41.5 µM.

**Q.** And the “inhibitory efficacy” value [2]?
**A.** The value was “either no or only weak inhibitory effects; also recorded: failed to block the enzymatic activity”.

**Q.** And the EC50 [4]?
**A.** The EC50 was 1.13 µM.
